Patent US10709678B2, “Methods of reducing risk of cardiovascular disease” (NEUROBO PHARMACEUTICALS, INC., priority 2012, dated 2020)
Where two headings read alike, the source gives them in different places.

Legend:
[1] = system: hypercholesterolemic patients; assay: Framingham Risk Score, baseline vs week 8, in the same phase 2 study; type: in vivo, human; conditions: 300 mg and 900 mg QD
Experimental: As used herein, references to 10-year risk are calculated using the Framingham point scores as provided in Tables 1 and 2, for men and women respectively. The patients' Framingham Risk Score was calculated at baseline. The Framingham risk score calculation takes into account: age, gender, systolic blood pressure level (+/−treatment), HDL cholesterol level, and smoker status. […] Significance was determined using the SAS Proc Univariate which provides p values from the student's paired t-test and the Wilcoxon Signed Rank test.

[2] = system: hypercholesterolemic patients; assay: 8-week double-blind placebo-controlled phase 2 study of gemcabene added to a stable statin dose: LDL-C; type: in vivo, human; conditions: on stable statin, placebo reduction 7.9%, p<0.01
Experimental: An 8-week, double-blind, placebo-controlled, randomized, multicenter, phase 2 study in hypercholesterolemic patients on a stable dose of statin (on statin therapy for at least the previous 3 months) was conducted to evaluate the efficacy of gemcabene in the further reduction of LDL-C in these patients.
A total of 66 hypercholesterolemic patients were treated in this study: 22 randomized to gemcabene 900 mg, 20 randomized to gemcabene 300 mg, and 24 randomized to placebo.
Patients included in the study were men and women ≥18 and ≤65 years of age with hypercholesterolemia and an LDL-C level at screening of ≥130 mg/dL while on a stable (3-months) dose of a statin. Patients were required to maintain their current dose of statin throughout the course of the study. […]
Percent change from base line was calculated as follows: Percent Change From Baseline=[(final value−baseline value)/baseline value]×100%. […]

LDL-C [3] = conditions: cited from earlier work
LDL-C [4] = conditions: monotherapy, ezetimibe 10 mg; cited from earlier work
LDL-C [5] = conditions: lovastatin 40 mg twice daily; cited from earlier work
obese female Zucker rats = conditions: cited from earlier work

## CC(C)(CCCCOCCCCC(C)(C)C(=O)O)C(=O)O [gemcabene, 6,6′-oxybis-(2,2′-dimethylhexanoic acid)]
[1]
  Framingham Risk Score compared with statin treatment alone: significantly reduced
[2]; 300 mg per day
  LDL-C lowered from baseline at Week 8, median: 24.8%
[2]; 900 mg per day
  LDL-C lowered from baseline at Week 8, median: 31.0%
LDL-C [3]; 300 mg gemcabene with atorvastatin (aggregated over 10, 40 and 80 mg)
  decrease in LDL-C beyond atorvastatin monotherapy: 3.8%
LDL-C [3]; 600 mg gemcabene with atorvastatin (aggregated over 10, 40 and 80 mg)
  decrease in LDL-C beyond atorvastatin monotherapy: 6.1%
LDL-C [3]; 900 mg gemcabene with atorvastatin (aggregated over 10, 40 and 80 mg)
  decrease in LDL-C beyond atorvastatin monotherapy: 7.4%

## O=C1[C@H](CC[C@H](O)c2ccc(F)cc2)[C@@H](c2ccc(O)cc2)N1c1ccc(F)cc1 [ezetimibe]
LDL-C [4]
  LDL-C lowered: 16%

## CC[C@H](C)C(=O)O[C@H]1C[C@@H](C)C=C2C=C[C@H](C)[C@H](CC[C@@H]3C[C@@H](O)CC(=O)O3)[C@H]21 [lovastatin]
LDL-C [5]
  LDL-C lowered: 35.5%

## CC(C)(CCCCCC(O)CCCCCC(C)(C)C(=O)O)C(=O)O [ESP 55016]
Obese female Zucker rats
  HDL-C: raising
  non-HDL-C: effective in lowering
  triglyceride levels: decreasing
